Among the data in US11897898B2, “Pyridine macrocycle compounds as ASK1 inhibiting agents” (BIOGEN MA INC., priority 2018, dated 2024) are Kp uu values, retold here.

The data set can be described thus: In vivo brain penetration (rat Kpuu study). The settings on record: brain and plasma (unbound), IV infusion in the carotid artery for four hours, 1 mg/kg, steady state, Kpuu=Cu,b/Cu,p. On the procedure:
To evaluate the CNS penetration of the compounds described herein, several compounds were selected for in vivo rat Kpuu studies. In these experiments the compounds are administered via an IV infusion (using N,N-dimethylacetamide:ethanol:1,2-propylene glycol:water in a 1:1:3:5 ratio as the vehicle) in the carotid artery for a period of four hours (1 mg/kg, 0.1 mg/mL) to reach steady state. After this time the plasma and brain concentration levels are quantified, and the values are adjusted by the measured protein binding in plasma and brain homogenate to calculate the Kpuu (see Di, L.; Kerns, E. H. Blood-Brain Barrier in Drug Discovery (Wiley)) according to the equation below. Kpuu=Cu,b/Cu,p • Wherein: • Cu,b=Unbound concentration in brain (C×fu,b). (C=concentration at steady state; fu,b=fraction unbound in brain) • And in which: Cu,p=Unbound concentration in plasma (C×fu,p). (C=concentration at steady state; fu,p=fraction unbound in plasma)
Plasma and brain protein binding values were generated via the Rapid Equilibrium Dialysis method. The compound of interest was incubated in K2EDTA plasma and brain homogenate (homogenized 1:7 (w:v) in 1×PBS) purchased from BioIVT (Westbury, N.Y.), opposite a buffered compartment of 100 mM Potassium phosphate/150 mM Sodium chloride, pH 7.4, at 1 μM for 4 hr and 6 hr respectively. At the conclusion of incubation samples were taken from both matrix and buffered compartments, matrix-matched using blank buffer and matrix, extracted with acetonitrile, diluted with water, and analyzed utilizing an Agilent RapidFire 365 high-throughput LC coupled with MS/MS detection via an AB Sciex 5500. Free fractions (fu) were then calculated by comparing internal standard/analyte peak-area ratios of matrix and buffered compartments. Cross-species brain protein binding was considered to be equivalent for the purposes of calculating free fraction (see Di, L., et al., (2011a) Species Independence in Brain Tissue Binding Using Brain Homogenates, Drug Metab Dispos 39:1270-1277).
Total drug concentration in plasma and brain tissue was measured via well-established bioanalytical extraction (protein precipitation) and detection methods (LC-MS/MS). Brain tissues were homogenized 1:4 (w:v) with 1×PBS in MP Biomedicals Lysing Matrix D tubes via an MP Biomedicals FastPrep-24™ homogenizer and were then extracted alongside plasma samples by matrix-matching with blank K2EDTA plasma (purchased from BioIVT), followed by protein crash/extraction with acetonitrile, supernatant dry down under nitrogen, and reconstitution with an acidified aqueous/organic mixture before being measured against a calibration curve of the compound of interest prepared in plasma, matrix-matched with blank brain homogenate (generated with brains purchased from BioIVT), and similarly extracted. Reconstituted extracts were then analyzed via LC-MS/MS (AB Sciex 5500) utilizing a binary HPLC setup (Shimadzu LC-20ADvp) and reverse-phase chromatography gradient (ACE 3 C18-AR). Peak area ratios and a 1/x^2 regression fit were used to generate sample concentration values that, combined with plasma and brain protein binding values, were used to generate free drug concentration values and partitioning coefficient (Kpuu).
`C[C@H]1CCCOc2ncc(Br)cc2C(=O)Nc2cccc(n2)-c2nncn21` (single isomer, unassigned) [Compound 1] registered a Kp uu at 4 h of at least 0.1.
The value for `C[C@H]1CCCOc2ncccc2C(=O)Nc2cccc(n2)-c2nncn21` (single isomer, unassigned) [Compound 4] was at least 0.1; that for `C[C@H]1CCCOc2ncc(C(F)(F)F)cc2C(=O)Nc2cccc(n2)-c2nncn21` (single isomer, unassigned) [Compound 41] was at least 0.1; that for `C[C@H]1CCCOc2ncc(-c3ccncc3)cc2C(=O)Nc2cccc(n2)-c2nncn21` [Compound 17, (S)-10-Methyl-5^5-(pyridin-4-yl)-1^4H-6-oxa-3-aza-2(2,6),5(3,2)-dipyridina-1(3,4)-triazolacyclodecaphan-4-one] was at least 0.1.
The value for `C[C@H]1CCCOc2ncc(C#N)cc2C(=O)Nc2cccc(n2)-c2nncn21` [Compound 38, (S)-10-Methyl-4-oxo-1^4H-6-oxa-3-aza-2(2,6),5(3,2)-dipyridina-1(3,4)-triazolacyclodecaphane-5^5-carbonitrile] was below 0.1.
